The source of these data is US7625841B2, “Substituted thiene-3-ylsulphonylamino(thio)carbonyltriazolin(ethi)ones” (Bayer CropScience AG, priority 2001, dated 2009).

Common to all, as to assay: Pre-emergence test/greenhouse
Holding throughout (format): in vivo

One test concerns maize. The settings on record: Zea mays, 504 h, greenhouse, application rate 15 gai/ha, rated after three weeks, 0%=no effect, 100%=total destruction, read-out: degree of damage to the plants, maize. How it is done:
(§1) • Solvent: 5 parts by weight of acetone • Emulsifier: 1 part by weight of alkylaryl polyglycol ether
(§2) To produce a suitable preparation of active compound, 1 part by weight of active compound is mixed with the stated amount of solvent, the stated amount of emulsifier is added and the concetrate is diluted with water to the desired concentration.
(§3) Seeds of the test plants are sown in normal soil. After 24 hours, the soil is sprayed with the preparation of active compound such that the particular amount of active compound desired is applied per unit area. The concentration of active compound in the spray liquor is chosen such that the particular amount of active compound desired is applied in 1000 litres of water per hectare.
(§4) After three weeks, the degree of damage to the plants is rated in % damage in comparison to the development of the untreated control. The figures denote: • 0%=no effect (like untreated control) • 100%=total destruction

A further test concerns Avena fatua. The following applies: greenhouse, application rate 15 gai/ha, rated after three weeks, 0%=no effect, 100%=total destruction. How it is done:
as §1, §2, §3, §4

The next test concerns Bromus. The following applies: greenhouse, application rate 15 gai/ha, rated after three weeks, 0%=no effect, 100%=total destruction. On the procedure: as §1, §2, §3, §4
In the next test the test system is soybeans. The following applies: greenhouse, application rate 15 gai/ha, rated after three weeks, 0%=no effect, 100%=total destruction. On the procedure:
as §1, §2, §3, §4

A further test has as its system wheat. The following applies: Triticum aestivum, 504 h, greenhouse, application rate 15 gai/ha, rated after three weeks, 0%=no effect, 100%=total destruction, read-out: degree of damage to the plants, wheat. On the procedure: as §1, §2, §3, §4
For another test, the system named is Amaranthus. The following applies: greenhouse, application rate 15 gai/ha, rated after three weeks, 0%=no effect, 100%=total destruction. On the procedure: as §1, §2, §3, §4
The subject of a further test is Alopecurus. The settings on record: greenhouse, application rate 15 gai/ha, rated after three weeks, 0%=no effect, 100%=total destruction. On the procedure: as §1, §2, §3, §4
The next test deals with Chenopodium. The following applies: greenhouse, application rate 15 gai/ha, rated after three weeks, 0%=no effect, 100%=total destruction. On the procedure:
as §1, §2, §3, §4

Another test concerns Digitaria. The following applies: greenhouse, application rate 15 gai/ha, rated after three weeks, 0%=no effect, 100%=total destruction. On the procedure:
as §1, §2, §3, §4

In the next test the test system is Galium. The following applies: greenhouse, application rate 15 gai/ha, rated after three weeks, 0%=no effect, 100%=total destruction. How it is done:
as §1, §2, §3, §4

Another test relates to Setaria. The following applies: greenhouse, application rate 15 gai/ha, rated after three weeks, 0%=no effect, 100%=total destruction. On the procedure: as §1, §2, §3, §4
Another test relates to Polygonum. The following applies: greenhouse, application rate 15 gai/ha, rated after three weeks, 0%=no effect, 100%=total destruction. How it is done: as §1, §2, §3, §4
Another test concerns Xanthium. The following applies: Xanthium, 504 h, greenhouse, application rate 15 gai/ha, rated after three weeks, 0%=no effect, 100%=total destruction, read-out: degree of damage to the plants, Xanthium. How it is done:
as §1, §2, §3, §4

For another test, the system named is Stellaria. The following applies: Stellaria, 504 h, greenhouse, application rate 15 gai/ha, rated after three weeks, 0%=no effect, 100%=total destruction, read-out: degree of damage to the plants, Stellaria. On the procedure: as §1, §2, §3, §4
A further test concerns Lolium. The following applies: Lolium, 504 h, greenhouse, application rate 15 gai/ha, rated after three weeks, 0%=no effect, 100%=total destruction, read-out: degree of damage to the plants, Lolium. On the procedure: as §1, §2, §3, §4
Another test concerns Matricaria. The settings on record: Matricaria, 504 h, greenhouse, application rate 15 gai/ha, rated after three weeks, 0%=no effect, 100%=total destruction, read-out: degree of damage to the plants, Matricaria. How it is done:
as §1, §2, §3, §4

The test system of another test is Solanum. The settings on record: greenhouse, application rate 15 gai/ha, rated after three weeks, 0%=no effect, 100%=total destruction. How it is done: as §1, §2, §3, §4

With `COC(=O)c1csc(C)c1S(=O)(=O)NC(=O)n1nc(OC(C)C)n(C2CC2)c1=O` [(C), methyl 4-[[[(4-cyclopropyl-4,5-dihydro-5-oxo-3-isopropoxy-1H-1,2,4-triazol-1-yl)-carbonyl]amino]sulfonyl]-5-methyl-3-thiophenecarboxylate, reference compound], the plant injury at 15 g/ha with maize and with wheat was 0% throughout. For the same compound, in the test on Avena fatua, the “degree of damage to the plants, Avena fatua” value (“degree of damage … Avena fatua” below) amounted to 50%. In the test on Bromus, the “degree of damage to the plants, Bromus” value is listed as 70%. The “degree of damage to the plants, soybeans” value with soybeans amounted to 0%. Moreover, the “degree of damage to the plants, Amaranthus” value (“degree of damage … Amaranthus” below) in the test with Amaranthus was 80%. In addition, the “degree of damage to the plants, Alopecurus” value (shortened to “degree of damage … Alopecurus”) in the test on Alopecurus stood at 0%. In addition, the “degree of damage to the plants, Chenopodium” value (shortened to “degree of damage … Chenopodium”) in the test on Chenopodium stood at 40%. Moreover, in the test on Digitaria, the “degree of damage to the plants, Digitaria” value (from here on “degree of damage … Digitaria”) was found to be 20%. Moreover, in the test with Galium, the “degree of damage to the plants, Galium” value is recorded as 70%. In addition, the “degree of damage to the plants, Setaria” value with Setaria is listed as 50%. The “degree of damage to the plants, Polygonum” value (shortened to “degree of damage … Polygonum”) with Polygonum was determined as 60%. The pest or weed control at 15 g/ha with Xanthium worked out at 0%; in the test with Stellaria, 80%; with Lolium, 50%; in the test on Matricaria it was 80%.

Consider `COC(=O)c1csc(C)c1S(=O)(=O)NC(=O)n1nc(C2CC2)n(C2CC2)c1=O` [(D), methyl 4-[[[(3,4-dicyclopropyl-4,5-dihydro-5-oxo-1H-1,2,4-triazol-1-yl)carbonyl]-amino]sulfonyl]-5-methyl-3-thiophenecarboxylate, reference compound], for which the plant injury at 15 g/ha with maize was 20%; in the test on wheat it was 0%. Moreover, the “degree of damage … Avena fatua” value in the test on Avena fatua amounted to 70%. The “degree of damage to the plants, Bromus” value in the test on Bromus is recorded as 10%. For the same compound, the “degree of damage to the plants, soybeans” value in the test on soybeans came to 0%. Besides, the “degree of damage … Amaranthus” value with Amaranthus is 80%. For the same compound, the “degree of damage … Alopecurus” value in the test on Alopecurus was determined as 0%. For the same compound, in the test with Chenopodium, the “degree of damage … Chenopodium” value stood at 0%. In addition, in the test with Solanum, the “degree of damage to the plants, Solanum” value is given as 80%. Further, the “degree of damage … Digitaria” value in the test on Digitaria is 20%. Also, the “degree of damage to the plants, Galium” value with Galium came to 0%. In the test with Setaria, the “degree of damage to the plants, Setaria” value is reported as 10%. The “degree of damage … Polygonum” value in the test with Polygonum came out at 10%. For the same compound, the pest or weed control at 15 g/ha was 0% with Xanthium, 60% with Stellaria, 20% in the test with Lolium and 10% in the test on Matricaria.

Turning to `COC(=O)c1csc(C)c1S(=O)(=O)NC(=O)n1nc(C)n(C)c1=O` [(E), methyl 4-[[[(4,5-dihydro-3,4-dimethyl-5-oxo-1H-1,2,4-triazol-1-yl)carbonyl]-amino]sulfonyl]-5-methyl-3-thiophenecarboxylate, reference compound], the plant injury at 15 g/ha in the test on maize and in the test with wheat was 0% in each case. In the test with Avena fatua, the “degree of damage … Avena fatua” value is on record as 0%. The “degree of damage to the plants, Bromus” value in the test on Bromus was determined as 20%. The “degree of damage to the plants, soybeans” value in the test on soybeans was 0%. In the test with Amaranthus, the “degree of damage … Amaranthus” value was 10%. Also, the “degree of damage … Alopecurus” value in the test on Alopecurus amounted to 20%. The “degree of damage … Chenopodium” value in the test on Chenopodium came to 0%. The “degree of damage to the plants, Solanum” value in the test with Solanum was 70%. Moreover, the “degree of damage … Digitaria” value with Digitaria is 0%. The “degree of damage to the plants, Galium” value in the test on Galium stood at 0%. In the test on Setaria, the “degree of damage to the plants, Setaria” value was 20%. Besides, the “degree of damage … Polygonum” value in the test with Polygonum amounted to 20%. The pest or weed control at 15 g/ha in the test with Xanthium was determined as 0%; with Stellaria it was 40%; with Lolium it was 0%; in the test with Matricaria, 20%.

`CCc1nn(C(=O)NS(=O)(=O)c2c(C(=O)OC)csc2C)c(=O)n1C` [(F), methyl 4-[[[(4,5-dihydro-3-ethyl-4-methyl-5-oxo-1H-1,2,4-triazol-1-yl)carbonyl]-amino]sulfonyl]-5-methyl-3-thiophenecarboxylate, reference compound]: the plant injury at 15 g/ha with maize and with wheat was 0% each time. For the same compound, the “degree of damage … Avena fatua” value with Avena fatua came to 60%. Moreover, the “degree of damage to the plants, Bromus” value in the test with Bromus is 70%. The “degree of damage to the plants, soybeans” value in the test with soybeans is 10%. Also, the “degree of damage … Amaranthus” value in the test with Amaranthus is given as 40%. Besides, the “degree of damage … Alopecurus” value with Alopecurus is 70%. Besides, the “degree of damage … Chenopodium” value with Chenopodium amounted to 0%. The “degree of damage to the plants, Solanum” value in the test with Solanum was found to be 80%. The “degree of damage … Digitaria” value with Digitaria came to 60%. For the same compound, in the test on Galium, the “degree of damage to the plants, Galium” value is reported as 10%. In addition, the “degree of damage to the plants, Setaria” value with Setaria worked out at 30%. Moreover, in the test on Polygonum, the “degree of damage … Polygonum” value was 50%. The pest or weed control at 15 g/ha with Xanthium is 0%; in the test on Stellaria it was 70%; with Lolium, 40%; with Matricaria, 20%.

As for `COC(=O)c1csc(C)c1S(=O)(=O)NC(=O)n1nc(SC)n(C)c1=O` [(G), methyl 4-[[[(4,5-dihydro-4-methyl-3-methylthio-5-oxo-1H-1,2,4-triazol-1-yl)carbonyl]amino]sulfonyl]-5-methyl-3-thiophenecarboxylate, reference compound], the plant injury at 15 g/ha with maize and in the test on wheat was 0% each time. In addition, the “degree of damage … Avena fatua” value in the test with Avena fatua is 50%. Moreover, in the test with soybeans, the “degree of damage to the plants, soybeans” value is listed as 50%. For the same compound, the “degree of damage … Amaranthus” value with Amaranthus was found to be 40%. The “degree of damage … Chenopodium” value in the test with Chenopodium is 50%. Moreover, in the test with Solanum, the “degree of damage to the plants, Solanum” value is on record as 80%. Besides, the “degree of damage … Digitaria” value with Digitaria worked out at 50%. In addition, the “degree of damage to the plants, Galium” value in the test on Galium is 30%. Besides, the “degree of damage to the plants, Setaria” value in the test on Setaria amounted to 70%. Moreover, the “degree of damage … Polygonum” value with Polygonum turned out to be 70%. In addition, the pest or weed control at 15 g/ha with Xanthium came to 40%; in the test on Stellaria, 80%; with Lolium, 60%; with Matricaria it was 70%.
